We go through eight cell lines from the supplement of paper PMC10307832.

Test in all cases: relative viability (nuclei count vs DMSO), 5 days (fraction); higher = more cells survive
Compound in experiment [1]: COc1cc2nccc(Oc3ccc(NC(=O)C4(C(=O)Nc5ccc(F)cc5)CC4)cc3)c2cc1OC [Cabozantinib] + CC(C)C[C@H](NC(=O)[C@H](Cc1ccccc1)NC(=O)c1cnccn1)B(O)O [Bortezomib] (partner 0.002 µM)
The method, boiled down: (§1)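 Lung cancer cell lines were seeded in 1536-well plates and dosed by pin tool the next day, with either a single drug or a fixed anchor-drug dose combined with five library-drug doses (not always all listed) spaced in √10 steps. Five days later, one step fixed the cells and stained their nuclei (final 0.05% Triton X-100, 1% formaldehyde, 1 ug/ml Hoechst), and nuclei were counted on 4× images. Relative viability is the nuclei count in treated wells divided by the count in vehicle wells, and each value is the median of duplicate plates.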

Compound in experiment [2]: COc1cc2nccc(Oc3ccc(NC(=O)C4(C(=O)Nc5ccc(F)cc5)CC4)cc3)c2cc1OC [Cabozantinib] + Cc1nc(NC(=O)N2CCC[C@H]2C(N)=O)sc1-c1ccnc(C(C)(C)C(F)(F)F)c1 [Alpelisib] (partner 2 µM)
Put shortly: as §1

Compound in experiment [3]: C1=CC(=CC=C1NC(=S)NNC2=C(C=C(C=C2[N+](=O)[O-])C(F)(F)F)[N+](=O)[O-])F [Kobe2602] + NC(=O)Nc1cc(-c2cccc(F)c2)sc1C(=O)N[C@H]1CCCNC1 [AZD7762] (partner 0.2 µM)
The method, boiled down: as §1

Compound in experiment [4]: C1=CC(=CC=C1NC(=S)NNC2=C(C=C(C=C2[N+](=O)[O-])C(F)(F)F)[N+](=O)[O-])F [Kobe2602] + O=C(CCCCCCC(=O)Nc1ccccc1)NO [Vorinostat] (partner 1 µM)
Put shortly: as §1

As to EBC-1, the relative viability turned out to be 0.673 in experiment [1] (first compound 0.02 µM); 0.484 in experiment [1] (first compound 0.06325 µM); 0.221 in experiment [1] (first compound 0.2 µM); 0.245 in experiment [1] (first compound 0.6325 µM); 0.173 in experiment [1] (first compound 2 µM); 0.718 in experiment [2] (first compound 0.02 µM). Besides, the relative viability in experiment [2] (first compound 0.06325 µM) was 0.931; in experiment [2] (first compound 0.2 µM) it was 0.208; in experiment [2] (first compound 0.6325 µM) it was 0.185; in experiment [2] (first compound 2 µM) it was 0.22.

EKVX: the relative viability was 0.724 in experiment [3] (first compound 0.2 µM); 0.701 in experiment [3] (first compound 0.6325 µM); 0.736 in experiment [3] (first compound 2 µM); 0.722 in experiment [3] (first compound 6.325 µM); 0.865 in experiment [3] (first compound 20 µM); 0.678 in experiment [4] (first compound 0.2 µM). Besides, the relative viability in experiment [4] (first compound 0.6325 µM) came to 0.879; in experiment [4] (first compound 2 µM), 0.652; in experiment [4] (first compound 6.325 µM), 0.757; in experiment [4] (first compound 20 µM), 0.672; in experiment [1] (first compound 0.02 µM), 0.996; in experiment [1] (first compound 0.06325 µM) it was 1.19. Moreover, the relative viability in experiment [1] (first compound 0.2 µM) is 0.942; in experiment [1] (first compound 0.6325 µM), 1.1; in experiment [1] (first compound 2 µM), 1; in experiment [2] (first compound 0.02 µM), 0.788; in experiment [2] (first compound 0.06325 µM), 0.898; in experiment [2] (first compound 0.2 µM) it was 0.695. The results for the relative viability in experiment [2] (first compound 0.6325 µM) and in experiment [2] (first compound 2 µM) were 0.886 and 0.951, respectively.

On to EMC-BAC-2, for which the relative viability in experiment [3] (first compound 0.2 µM) turned out to be 1.14; in experiment [3] (first compound 0.6325 µM), 1.16; in experiment [3] (first compound 2 µM) it was 1.06; in experiment [3] (first compound 6.325 µM) it was 1.21; in experiment [3] (first compound 20 µM) it was 1.16; in experiment [4] (first compound 0.2 µM) it was 0.494. Also, the relative viability in experiment [4] (first compound 0.6325 µM) was 1.01; in experiment [4] (first compound 2 µM) it was 0.425; in experiment [4] (first compound 6.325 µM), 0.593; in experiment [4] (first compound 20 µM), 0.462; in experiment [1] (first compound 0.02 µM) it was 0.982; in experiment [1] (first compound 0.06325 µM), 1.2. Moreover, the relative viability in experiment [1] (first compound 0.2 µM) worked out at 1.01; in experiment [1] (first compound 0.6325 µM) it was 1.07; in experiment [1] (first compound 2 µM), 1.17; in experiment [2] (first compound 0.02 µM) it was 0.815; in experiment [2] (first compound 0.06325 µM), 0.804; in experiment [2] (first compound 0.2 µM), 0.744. The relative viability in experiment [2] (first compound 0.6325 µM) stood at 0.739; in experiment [2] (first compound 2 µM), 0.737.

As for EPLC-272H, the relative viability in experiment [3] (first compound 0.2 µM) was 0.349; in experiment [3] (first compound 0.6325 µM), 0.212; in experiment [3] (first compound 2 µM) it was 0.187; in experiment [3] (first compound 6.325 µM), 0.24; in experiment [3] (first compound 20 µM), 0.282; in experiment [4] (first compound 0.2 µM) it was 0.494. In addition, the relative viability was 0.676 in experiment [4] (first compound 0.6325 µM); 0.557 in experiment [4] (first compound 2 µM); 0.402 in experiment [4] (first compound 6.325 µM); 0.479 in experiment [4] (first compound 20 µM); 0.98 in experiment [1] (first compound 0.02 µM); 0.937 in experiment [1] (first compound 0.06325 µM). The relative viability was 0.756 in experiment [1] (first compound 0.2 µM); 1.04 in experiment [1] (first compound 0.6325 µM); 1.04 in experiment [1] (first compound 2 µM); 1.02 in experiment [2] (first compound 0.02 µM); 0.944 in experiment [2] (first compound 0.06325 µM); 0.727 in experiment [2] (first compound 0.2 µM). Besides, the figures for the relative viability in experiment [2] (first compound 0.6325 µM) and in experiment [2] (first compound 2 µM) were 0.949 and 0.847, respectively.

On to H3255, for which the relative viability in experiment [3] (first compound 0.2 µM) stood at 0.868; in experiment [3] (first compound 0.6325 µM), 0.956; in experiment [3] (first compound 2 µM) it was 0.868; in experiment [3] (first compound 6.325 µM), 0.775; in experiment [3] (first compound 20 µM) it was 0.864; in experiment [4] (first compound 0.2 µM), 0.772. Also, the relative viability in experiment [4] (first compound 0.6325 µM) was 0.841; in experiment [4] (first compound 2 µM) it was 0.776; in experiment [4] (first compound 6.325 µM) it was 0.853; in experiment [4] (first compound 20 µM), 0.78; in experiment [1] (first compound 0.02 µM) it was 0.75; in experiment [1] (first compound 0.06325 µM), 0.958. The relative viability in experiment [1] (first compound 0.6325 µM) was 0.831; in experiment [1] (first compound 2 µM), 0.901; in experiment [2] (first compound 0.02 µM), 0.675; in experiment [2] (first compound 0.06325 µM), 0.635; in experiment [2] (first compound 0.6325 µM), 0.779; in experiment [2] (first compound 2 µM) it was 0.644.

With HARA, the relative viability in experiment [3] (first compound 0.2 µM) was found to be 0.304; in experiment [3] (first compound 0.6325 µM), 0.266; in experiment [3] (first compound 2 µM), 0.477; in experiment [3] (first compound 6.325 µM) it was 0.356; in experiment [3] (first compound 20 µM) it was 0.379; in experiment [4] (first compound 0.2 µM) it was 0.529. Further, the relative viability in experiment [4] (first compound 0.6325 µM) was found to be 0.553; in experiment [4] (first compound 2 µM), 0.422; in experiment [4] (first compound 6.325 µM), 0.509; in experiment [4] (first compound 20 µM) it was 0.767; in experiment [1] (first compound 0.02 µM) it was 1.18; in experiment [1] (first compound 0.06325 µM), 1.19. In addition, the relative viability in experiment [1] (first compound 0.2 µM) turned out to be 0.975; in experiment [1] (first compound 0.6325 µM), 1.18; in experiment [1] (first compound 2 µM) it was 1.11; in experiment [2] (first compound 0.02 µM), 0.878; in experiment [2] (first compound 0.06325 µM), 1.05; in experiment [2] (first compound 0.2 µM) it was 0.639. Moreover, the relative viability in experiment [2] (first compound 0.6325 µM) is 0.788; in experiment [2] (first compound 2 µM) it was 0.84.

As for HCC-15, the relative viability in experiment [3] (first compound 0.2 µM) was 1.03; in experiment [3] (first compound 0.6325 µM) it was 1.2; in experiment [3] (first compound 2 µM) it was 1.02; in experiment [3] (first compound 6.325 µM), 1.17; in experiment [3] (first compound 20 µM), 1.43; in experiment [4] (first compound 0.2 µM), 0.908. Besides, the relative viability worked out at 0.912 in experiment [4] (first compound 0.6325 µM); 0.814 in experiment [4] (first compound 2 µM); 0.815 in experiment [4] (first compound 6.325 µM); 0.812 in experiment [4] (first compound 20 µM); 0.974 in experiment [1] (first compound 0.02 µM); 1.1 in experiment [1] (first compound 0.06325 µM). The relative viability was determined as 0.995 in experiment [1] (first compound 0.2 µM); 1.02 in experiment [1] (first compound 0.6325 µM); 1.09 in experiment [1] (first compound 2 µM); 0.881 in experiment [2] (first compound 0.02 µM); 0.933 in experiment [2] (first compound 0.06325 µM); 0.925 in experiment [2] (first compound 0.2 µM). Moreover, the values for the relative viability in experiment [2] (first compound 0.6325 µM) and in experiment [2] (first compound 2 µM) were 0.905 and 0.761, respectively.

Turning to HCC-44, the relative viability in experiment [3] (first compound 0.2 µM) amounted to 0.951; in experiment [3] (first compound 0.6325 µM), 0.952; in experiment [3] (first compound 2 µM) it was 1.04; in experiment [3] (first compound 6.325 µM) it was 0.982; in experiment [3] (first compound 20 µM), 0.892; in experiment [4] (first compound 0.2 µM) it was 0.999. The relative viability in experiment [4] (first compound 0.6325 µM) worked out at 1.04; in experiment [4] (first compound 2 µM), 1.08; in experiment [4] (first compound 6.325 µM), 1.05; in experiment [4] (first compound 20 µM), 0.99; in experiment [1] (first compound 0.02 µM) it was 1.01; in experiment [1] (first compound 0.06325 µM) it was 0.968. The relative viability stood at 0.877 in experiment [1] (first compound 0.2 µM); 0.946 in experiment [1] (first compound 0.6325 µM); 0.943 in experiment [1] (first compound 2 µM); 0.864 in experiment [2] (first compound 0.02 µM); 0.784 in experiment [2] (first compound 0.06325 µM); 0.808 in experiment [2] (first compound 0.2 µM). Moreover, the relative viability turned out to be 0.757 in experiment [2] (first compound 0.6325 µM) and 0.855 in experiment [2] (first compound 2 µM).
